From patent publication US5162571A, “Phenol derivatives, their production and use” (Takeda Chemical Industries, Ltd., priority 1987, dated 1992)

Columns and labels:
[1] = molecular target: T1, Thromboxane A2 (TXA2) receptor (Oryctolagus cuniculus, UniProt Q6WQI8); assay: Thromboxane A2 (TXA2) receptor antagonism: inhibitory effect on contraction of rabbit aorta by TXA2-mimics; type: cell-based; conditions: U-44069 (10^-7 M)-induced contraction
T1 construct: contraction by TXA2 mimics U-44069 or U-46619
T1 sequence (Q6WQI8 1-233): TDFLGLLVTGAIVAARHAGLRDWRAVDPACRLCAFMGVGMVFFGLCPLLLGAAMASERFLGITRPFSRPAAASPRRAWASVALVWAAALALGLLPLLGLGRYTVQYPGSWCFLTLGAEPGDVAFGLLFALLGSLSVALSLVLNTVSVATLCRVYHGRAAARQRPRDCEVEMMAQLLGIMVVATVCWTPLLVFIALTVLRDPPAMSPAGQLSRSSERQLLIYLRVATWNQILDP
Procedure: Thromboxane A2 (TXA2) receptor antagonism
Inhibitory effect on contraction of rabbit aorta by thromboxan A2 (TXA2)-mimics
(§1) Method: A spiral strip of the rabbit aorta (2-3 mm wide, about 3 cm long) was suspended in Krebs-Henseleit solution under the load of 2 g. The Krebs-Henseleit solution was saturated with a mixed gas of 95%O2 -5%CO2 and warmed at 37° C. Inhibition of the contraction of the vascular strip caused by a TXA2 mimic substance U-44069^1) (10^-7 M) or U-46619^2) (3×10 ^-8 M), by pretreatment with Compound No. 13 30 minutes before was studied.
1) U-44069: (5Z, 9α, 11α, 13E, 15S)-15-hydroxy-9,11-(epoxymethano)-prosta-5,13-dienoic acid (manufacturedby The Upjohn Company in U.S.A.)
2) U-46619: (5Z, 9α, 11α, […], 15S)-15-hydroxy-11,9-(epoxymethano)-prosta-5,13-dienoic acid (manufacturedby Cayman Chemical Company)
In Table 5, "*" represents addition of U-46619.

[2] = molecular target: T2, specific [^3 H] U-46619 binding to guinea pig platelet membrane (Cavia porcellus, UniProt A0A286Y4I8); assay: Inhibition of specific [^3 H] U-46619 binding to guinea pig platelet membrane; conditions: [^3 H] U-46619, 25° C., 30 min; read-out: IC50 (Concentration for 50% inhibition)
T2 construct: Platelet membranes were prepared according to the following procedure; from tissue; host or cells: guinea pig platelet membranes
T2 sequence (A0A286Y4I8 1-347): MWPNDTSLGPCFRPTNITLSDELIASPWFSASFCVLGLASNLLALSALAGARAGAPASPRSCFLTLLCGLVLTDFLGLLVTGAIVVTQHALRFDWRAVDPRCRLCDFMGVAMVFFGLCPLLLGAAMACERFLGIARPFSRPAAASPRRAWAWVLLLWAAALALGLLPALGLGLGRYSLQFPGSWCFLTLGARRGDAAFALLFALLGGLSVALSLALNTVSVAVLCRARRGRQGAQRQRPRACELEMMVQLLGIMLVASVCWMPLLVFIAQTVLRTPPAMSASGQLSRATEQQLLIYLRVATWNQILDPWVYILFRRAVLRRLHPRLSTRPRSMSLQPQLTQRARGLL
Procedure: Inhibition of specific [^3 H] U-46619 binding to guinea pig platelet membrane
Method: Blood from normal guinea pig was collected into 0.315% citrate solution containing aspirin (final concentration 1 mM) and was centrifuged at 3000 r.p.m. for […]. The PRP (platelet rich plasma) was centrifuged at 4800 r.p.m for 10 min. at 4° C. Platelet membranes were prepared according to the following procedure: In order to remove the residual plasma protein, the platelet pellet was washed once with 30 ml of buffer containing 25 mM Tris-HCl/5 mM MgCl2 (pH 7.4) and recentrifuged to pellet the platelets. The platelets were then resuspended in 20 ml of the same buffer, and the cells were disrupted by sonication. The sonication was performed on ice using a Kontes Sonicator (Vineland, N.J.). The platelets were sonicated for a total of 90 sec. with a 15 sec. burst followed by a 15 sec. intermission. The sonicated mixture was centrifuged at 100,000×g for 1 hour and the membrane fraction was suspended in the same buffer. The protein concentration was adjusted to 1 mg/ml.
The binding assay was performed at 25° C. for 30 min. One ml of the resuspended membrane fraction was incubated with […] of [^3 H] U-46619. The incubation mixture was filtered through a glass fiber membrane (GF/C, whatman) to separate the membrane bound from free [^3 H] U-46619. The membranes were quickly washed twice with 5 ml of cold buffer, mixed with 4 ml of ACS scintillation fluid and counted for [^3 H] U-46619.

[3] = system: U-46619 (TXA2 mimic)-induced broncho-constriction; assay: Inhibitory effect on U-46619 (TXA2 mimic)-induced broncho-constriction in guinea pig; type: in vivo; conditions: Cavia porcellus, ** p < 0.01
Procedure: Inhibitory effect on U-46619 (TXA2 mimic)-induced broncho-constrictionin guinea pig
Method: Eight male Hartley guinea pigs were used per one group. The guinea pig anesthetized with urethane (1.5 g/kg, i.p.) was fixed in a dorsal position, subjected to tracheotomy and connected to a respirator through a cannula. A side branch of the tracheal cannula was connected to a respirator (Harvard apparatus rodent respirator Type 680) at the rate of 70 strokes/min. and a constant volume of 3 to 5 ml.
Inflation pressure was kept constant at 10 cm H2 O.
After treatment with gallamine triethiodide (1 mg/kg, i.v.), U-46619 (10 μg/Kg) dissolved in a physiological saline solution was given through a carotid cannula and the airway resistance was measured by the overflow technique of Konzett-Rossler method (Konzett, H. and Rossler, R., Naunyn-Schmiedegerg's Arch, Exp. Path. Pharmak., 195, 71-74 (1940). A test compound was suspended in 5% gum arabic solution and was administered orally 1 hour before the treatment with U-46619.
Alternatively, a test compound was dissolved in aqueous 50% dimethylsulfoxide solution and administered interveneously in the dosage of 0.1 ml/100 g body weight 9 minutes before the treatment of U-46619.

[4] = Extension of bleeding time; type: in vivo, rat; conditions: one hour before
Procedure: Extension of bleeding time
Method: Test compounds were administered orally to rats one hour before the experiments. The rats were anesthetized and the tail was cut at 1.5 mm from the tip. Immediately, the tail was hung down into a physiological saline warmed at 37° C. The time required from initiation to stop of bleeding (bleeding time) was measured.

[5] = system: vasoconstriction by PGD2 (rabbit aorta); assay: Inhibitory effect of vasoconstriction by PGD2; type: cell-based; conditions: Oryctolagus cuniculus; 10^-7 M; PGD2 (3×10^-6 M); n = 2; read-out: Inhibitory Rate (%)
Procedure: Inhibitory effect of vasoconstriction by PGD2
as §1, with “95% O2 -5% CO2” for “95%O2 -5%CO2”, “addition of PGD2 (3×10^-6” for “a TXA2 mimic substance U-44069^1) (10^-7”, “M)” for “M) or U-46619^2) (3×10 ^-8 M),”

inhibition at 1 µM ([1]; 10^-6 M): 99% | inhibition at 0.1 µM ([1]; 10^-7 M): 5% | IC50 [2]: 49 nM | Bleeding time ([4]; 10 mg/kg oral, control 173 ± 23, * p < 0.05): 235 ± 38 s | Bleeding time ([4]; 30 mg/kg oral, control 164 ± 27, ** p < 0.01): 529 ± 154 s
Compound: Cc1c(O)c(C(CCCCCC(=O)O)c2ccc(F)cc2)c(C)c2c1CCC2 (centres unmarked) [Compound 21]
inhibition in vivo at 0.31 mg/kg ([3]; iv, 0.31 mg/kg i.v., 9 minutes before U-46619): 51% | inhibition in vivo at 5 mg/kg ([3]; po, 5 mg/kg p.o., 1 hour before U-46619): 76% | inhibition at 0.1 µM [5]: 54%
